One data set deals with PfGARP-A (Plasmodium falciparum, UniProt Q9U0N1). The data set can be described thus: surface plasmon resonance (SPR) binding on BiaCore100. The text has this: Drugs were immobilized to a CM5 sensorchip and probed with varying concentrations of full length PfGARP on a BiaCore100.
PfGARP-A was immobilized to a sensorchip and probed with varying concentrations of drug on a BiaCore100.
(In general: SPR reads the build-up and loss of mass on a sensor chip optically.)

The test system of data set [1] is P. falciparum 3D7 strain parasites. The data set can be described thus: NSG/P. falciparum humanized mouse model, 3D7. It counts as in vivo, Plasmodium falciparum. Conditions: 100 mg/kg IP every 8 hours for 4 days, Pf3D7. As to the method:
Drugs were evaluated in the NSG/P. falciparum humanized mouse model. Mice were reconstituted with human RBC, infected with P. falciparum 3D7 strain parasites and treated with drug or vehicle control (100 mg/kg dosed IP every 8 hours for 4 days). Parasitemia was monitored by microscopy. Results representative of two independent experiments.
The NSG mouse (NOD scid gamma mouse) is a brand of immunodeficient laboratory mice, which carries the strain non-obese diabetic (NOD). The efficacy of both lead compounds ID #9081579 and ID #9078424 were evaluated in the NSG/P. falciparum humanized mouse model.^32,33,34,35
Briefly, NSG mice (NOD.Cg-Prkdc^scidII2rg^tm1Wjl/SzJ; JAX Cat #005557) were reconstituted with human RBC (huRBC) by daily IP injections with 1 mL of huRBC at 50% hematocrit. On day 12, mice were infected with of 2×10^7 Pf3D7 infected huRBCs via tail vein injection. On day 15, mice were injected IP with ID #9081579 or ID #9078424 at 100 mg/kg final dose (approximately 2 mg per mouse in 5% DMSO/95% PEG400 vehicle) or vehicle alone. Mice were treated with drug or vehicle control every 8 hours for 4 days. This dose and schedule was designed to maintain plasma drug levels above 50 μM, as informed by our single dose PK study in Example 5.

Data set [2] concerns P. falciparum strain 3D7 parasites. The data set can be described thus: parasite killing assay, P. falciparum 3D7, pLDH readout. Conditions: ring stage. Format: cell-based, Plasmodium falciparum. Here is the method:
P. falciparum strain 3D7 parasites were synchronized to the ring stage and incubated with a dilution series of compound or media control for 48 hours followed by quantification of parasitemia by Plasmodium lactate dehydrogenase assay (pLDH) assay.
(§1) P. falciparum strain 3D7 (Panels A and C) or 3D7 PfGARP KO (Panel B) parasites were synchronized to the ring stage and incubated with a dilution series of compound or media control for 48 hours followed by quantification of parasitemia by pLDH assay.
(§2) A limited structure-activity relationship (SAR) study was then conducted, evaluating 48 analog compounds having the same backbone (black in FIG. 3 inset and FIG. 4), but varying R groups (red) using P. falciparum strain 3D7 and 3D7 PfGARP KO parasites. For the SAR study, 3D7 or 3D7 PfGARP KO parasites were synchronized to the ring stage and incubated with a dilution series of compounds or media control for 48 hours followed by quantification of parasitemia by Plasmodium lactate dehydrogenase assay (pLDH) assay.^30 Each dilution was evaluated in quadruplicate. In all experiments, DMSO concentration was <0.1%.
The small molecule compounds shown in FIG. 4 were tested for their abilities to kill P. falciparum strain 3D7 parasites.

Another data set has as its target T1, PfGARP (aa 377-560) (Plasmodium falciparum, UniProt P13816).
T1 construct: made in house
The data set can be described thus: 1H-15N HSQC binding signature. As to the method:
Spectra were collected on a 600 MHz Bruker spectrometer at 17° C. from samples with PfGARP (aa 377-560) alone (Red), or in complex with ID #9078424 (Blue).
Two-dimension (2D) heteronuclear single quantum coherence (HSQC) spectroscopy was used to characterize the binding of ID #9078424 to PfGARP.
Using a series of recombinant PfGARP fragments, ^1H-^15N HSQC experiments were performed using PfGARP with and without ID #9078424. These experiments confirmed predictions that PfGARP was largely an intrinsically disordered protein.

Another data set concerns P. falciparum parasites. The data set can be described thus: parasite apoptosis assays (JC-1, TUNEL, ApoStat staining). It counts as cell-based, Plasmodium falciparum. Here is the method: (§3) To assess the morphological effects of compound ID #9081579, 3D7 or 3D7 PfGARP KO parasites were synchronized to the ring stage and incubated with 100 μM 9081579 or vehicle control for 48 hours. […] This induction of apoptosis is further supported by caspase activation and mitochondrial depolarization assays induced by compounds ID #9081579 and ID #9078424 (see FIG. 7).

Data set [3] relates to P. falciparum 3D7^0087/N9 strain parasites. The data set can be described thus: NSG/P. falciparum humanized mouse model, adapted strain. Format: in vivo, Plasmodium falciparum. Conditions: 100 mg/kg IP every 8 hours for 4 days, adapted strain 3D70087/N9. As to the method: ID #9081579 was evaluated in the NSG/P. falciparum humanized mouse model. Mice were reconstituted with human RBC, infected with P. falciparum 3D7^0087/N9 strain parasites and treated with drug or vehicle control (100 mg/kg dosed IP every 8 hours for 4 days). Parasitemia was monitored by microscopy.
Just prior to submission, we have repeated this experiment using ID #9081579 and an adapted parasite strain (3D70087/N9).

The test system of the next data set is BeWo cells. The data set can be described thus: BeWo crystal violet viability assay. It counts as cell-based, human. Here is the method:
BeWo, a human choriocarcinoma cell line, were grown in the presence of increasing concentrations of ID #9081579 or vehicle alone and cell concentration was measured using a crystal violet viability assay performed 48 hours after addition of drug. Points represent the mean of three independent technical replicates. Bars represent SD.
BeWo cells are a human placental cell line that originates from a choriocarcinoma.^31 These cells have been used widely as an in vitro model to study placental uptake of a variety of nutrients including glucose, amino acids, and iron. BeWo choriocarcinoma cells were grown in the presence of increasing concentrations of compound ID #9081579 or vehicle alone. Cell concentration was measured using a crystal violet viability assay performed 48 hours after addition of drug.

A further data set relates to strain INDO. The data set can be described thus: parasite killing in chloroquine and quinine resistant strain INDO. Format: cell-based. Conditions: Plasmodium falciparum.
For another data set, the system named is 3D7 parasites. The data set can be described thus: morphological effects on 3D7 parasites. It counts as cell-based, Plasmodium falciparum. Conditions: 100 μM, 48 hours. As to the method:
(§4) FIG. 6 illustrates the morphological changes that occur when compound ID #9081579 activates parasite apoptosis in P. falciparum strain 3D7 (Panel C), or 3D7 PfGARP KO (Panel B) incubated with 100 μM ID #9081579 (Panels A-B) or vehicle control (Panel A) for 48 hours.
as §3

In data set [4] the test system is 3D7 PfGARP KO parasites. The data set can be described thus: parasite killing assay, 3D7 PfGARP KO, pLDH readout. It counts as cell-based, Plasmodium falciparum. Conditions: 48 hours. Here is the method:
as §1, §2

A further data set relates to Human WBC (CD45+). The data set can be described thus: human WBC viability by 7AAD/annexin V flow cytometry. It counts as cell-based. Here is the method:
Cells were stained with 7AAD and annexin V and analyzed by flow cytometry to assess viability (7AAD−, annexin V−), necrosis (7AAD+, annexin V−), early apoptosis (7AAD−, annexin V+), and late apoptosis (7AAD+, annexin V+).
Human WBC (CD45+) were incubated in the presence of increasing concentrations of compound ID #9081579 or vehicle alone for 48 hours. Cells were stained with 7AAD and annexin V and analyzed by flow cytometry to assess viability (7AAD−, annexin V−), necrosis (7AAD+, annexin V−), early apoptosis (7AAD−, annexin V+), and late apoptosis (7AAD+, annexin V+).

Data set [5] concerns 3D7 PfGARP KO parasites. The data set can be described thus: morphological effects on 3D7 PfGARP KO parasites. Format: cell-based, Plasmodium falciparum. Conditions: 100 μM, 48 hours. Here is the method:
as §4, §3

Data set [6] relates to P. falciparum 3D7 strain parasites. Conditions: artesunate at 50 and 100 mg/kg, literature ref 36; cited from earlier work.
The mark [7] stands for this setting: FIG. 8 legend: drugs immobilized to CM5 sensorchip.
Where [8] appears, read: PfGARP-A immobilized to sensorchip, probed with drug.
Where [9] appears, read: increasing concentrations, 48 hours.

Where two headings read alike, the source gives them in different places. A value given as a limit tells only on which side of the number the result lay.

What is called IC50 is the concentration that gives 50% inhibition.

PfGARP-A, sequence (Q9U0N1 entry or part of it): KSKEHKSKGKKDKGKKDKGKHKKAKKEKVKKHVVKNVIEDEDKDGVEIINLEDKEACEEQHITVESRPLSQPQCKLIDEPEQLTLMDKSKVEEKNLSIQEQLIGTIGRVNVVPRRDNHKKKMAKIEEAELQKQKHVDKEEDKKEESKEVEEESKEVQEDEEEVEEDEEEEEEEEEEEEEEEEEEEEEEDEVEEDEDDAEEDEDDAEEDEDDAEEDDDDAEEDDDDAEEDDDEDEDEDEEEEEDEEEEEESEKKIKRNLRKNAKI
T1 sequence (P13816 377-560): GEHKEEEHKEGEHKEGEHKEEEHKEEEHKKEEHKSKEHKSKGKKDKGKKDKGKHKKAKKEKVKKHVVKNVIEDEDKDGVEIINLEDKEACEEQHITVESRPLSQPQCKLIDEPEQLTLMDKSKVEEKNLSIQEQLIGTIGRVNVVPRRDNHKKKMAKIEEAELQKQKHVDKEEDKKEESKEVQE

For `CC(C(=O)Nc1ccccc1Cl)N(c1ccc2c(c1)OCCO2)S(C)(=O)=O` (stereo not shown) [ID #9078424], the SPR kinetics result on PfGARP-A (setting [7]) is listed as “fast on, slow off kinetics”; at PfGARP-A (setting [8]), “fast on/off kinetics”. In addition, in data set [1], the parasitemia result is on record as “no detectible parasitemia after three days of drug treatment”. The concentration for half-maximal inhibition (IC50) in [2] (48 hours) was 4.4 µM; in data set [2] (48 hours, read-out: IC50), 4.39 µM. Also, the “binding to PfGARP fragment aa 377-560” value at PfGARP (aa 377-560) was “specific drug binding”. Also, in the data set on P. falciparum parasites, the “parasite apoptosis (JC-1, TUNEL, ApoStat staining)” value is “activate parasite apoptosis”.
For `CSc1cccc(NC(=O)C(C)N(c2ccc3c(c2)OCCO3)S(C)(=O)=O)c1` (stereo not shown) [ID #9081579], the SPR kinetics entry is “fast on, slow off kinetics” on PfGARP-A (setting [7]) and “fast on/off kinetics” at PfGARP-A (setting [8]). For the same molecule, the figures for the parasitemia result in [1] and in [3] were “no detectible parasitemia after three days of drug treatment” and “rapidly eliminated parasitemia”, respectively. The figures for the “highest non-toxic concentration relative to IC50 for parasites” value in the data set on BeWo cells (BeWo cells) and with Human WBC (CD45+) (human WBC (CD45+)) were 50 fold and 100 fold, respectively. In addition, the “concentration causing loss of viability (no loss up to highest concentration tested)” value in the data set on BeWo cells (BeWo cells, 48 hours, crystal violet) is more than 200 µM; with Human WBC (CD45+) (human WBC (CD45+), 48 hours) it was more than 400 µM. Moreover, the “growth of BeWo cells” value in the data set with BeWo cells (setting [9]) is listed as “does not inhibit the growth of BeWo cells”. Moreover, the IC50 in data set [2] (Plasmodium falciparum, 3D7, 48 h, read-out: IC50) was 1.8 to 4.8 µM; in data set [2] (48 hours, read-out: IC50) it was 1.88 µM; in the data set on strain INDO it was 5 to 8 µM. Further, the morphological changes result was “dysmorphic, shrunken features with pyknotic nuclei” in the data set with 3D7 parasites and “not observed” in the data set with 3D7 PfGARP KO parasites [5]. In the data set with P. falciparum parasites, the “parasite apoptosis (JC-1, TUNEL, ApoStat staining)” value is recorded as “activate parasite apoptosis”. The “parasite killing activity in PfGARP KO parasites” value with 3D7 PfGARP KO parasites [4] is “no activity”. Further, the “cytotoxicity to human white blood cells” value in the data set with Human WBC (CD45+) (setting [9]) is “not cytotoxic”.
Turning to `C[C@H]1[C@H](OC(=O)CCC(=O)O)O[C@@H]2O[C@@]3(C)CC[C@H]4[C@H](C)CC[C@@H]1[C@@]24OO3` [artesunate], the parasite clearance entry in data set [6] is on record as “rapid clearance”.

The record behind these values is patent US12544357B2, “Compositions and methods for the treatment of Plasmodium falciparum malaria” (priority 2021, dated 2026).
